Experimental data as given in PMC8329121 (Journal of Neuroimmune Pharmacology, 2021).
Changes are numbered by the printed parent chain.

Tests used:
[1] = target: T1, E2C-I159C hDAT (C90A/C306A/I159C) (Homo sapiens, UniProt Q01959, C306A/C90A/I159C); design: method as in Loland et al. [2004], [2008]; details: 0.5 mM MTSET for 10 min; ref Loland et al. [2004], [2008]; cited from earlier work
T1 construct: expressed in transfected cells; host or cells: HEK293 cells, transient, pcDNA3.1+
T1 sequence (Q01959 1-620 C90A/I159C/C306A): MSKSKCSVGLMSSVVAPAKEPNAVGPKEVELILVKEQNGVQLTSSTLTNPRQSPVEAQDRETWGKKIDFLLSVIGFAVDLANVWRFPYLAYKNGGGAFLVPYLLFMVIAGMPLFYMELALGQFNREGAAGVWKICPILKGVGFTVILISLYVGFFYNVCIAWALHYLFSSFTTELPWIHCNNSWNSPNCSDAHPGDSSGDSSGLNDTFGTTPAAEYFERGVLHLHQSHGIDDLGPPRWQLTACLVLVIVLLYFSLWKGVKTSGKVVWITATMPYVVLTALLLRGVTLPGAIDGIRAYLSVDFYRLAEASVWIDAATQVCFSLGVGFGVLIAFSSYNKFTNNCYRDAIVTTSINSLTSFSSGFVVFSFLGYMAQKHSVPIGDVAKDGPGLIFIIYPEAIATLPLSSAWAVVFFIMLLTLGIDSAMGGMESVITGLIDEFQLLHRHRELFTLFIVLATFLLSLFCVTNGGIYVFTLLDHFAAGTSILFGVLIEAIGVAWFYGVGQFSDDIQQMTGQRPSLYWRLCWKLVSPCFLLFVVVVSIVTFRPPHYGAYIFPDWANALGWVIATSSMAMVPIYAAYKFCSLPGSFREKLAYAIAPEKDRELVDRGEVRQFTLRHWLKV

[2] = target: T2, E2C/H547A hDAT (C90A/C306A/H547A) (Homo sapiens, UniProt Q01959, C306A/C90A/H547A); assay: MTSET assay, [3H]DA uptake in HEK293 cells; type: cell-based; details: 1 mM MTSET, HEK293, Fig. 8b
T2 construct: expressed in transfected cells; host or cells: HEK293 cells, transient, pcDNA3.1+
T2 sequence (Q01959 1-620 C90A/C306A/H547A): T1 sequence (Q01959 1-620 C90A/I159C/C306A) with C159I, H547A
From the text: All mutants on hDAT were generated based on the predictions made using our computational model, as described previously using site-directed mutagenesis based on the wild-type hDAT (WT hDAT) sequence (NCBI, cDNA clone MGC: 164,608 IMAGE: 40,146,999) (Quizon et al. [2016]). The combination of hDAT mutations on Asp206 and His547 (Aspartic acid 206 to leucine and histidine 547 to alanine, D206L/H547A) were predicted to eliminate two hydrogen bonds between Tat and hDAT. In addition, the combination of mutations on Tyr88, Asp206, and His547 (tyrosine88 to phenylalanine and aspartic acid 206 to leucine and histidine 547 to alanine, Y88F/D206L/H547A) were predicted to eliminate three hydrogen bonds from the Tat-hDAT complex. Two extracellular cysteine90 and cysteine306 residues on WT hDAT were mutated to alanine as E2C hDAT (C90A/C306A hDAT), rendering the E2C hDAT MTSET-insensitive background (Pedersen et al. [2014]). A triple mutation of the two cysteine90 and 306 residues to alanine and […] to cysteine on WT hDAT was generated as E2C-I159C hDAT (C90A/C306A/I159C) for MTSET-sensitive construct. A combination of C90A/C306A/H547A was generated as E2C/H547A hDAT for MTSET-insensitive control for H547A. To determine whether H547A-enhanced DA transport is mediated by changing transporter conformation, two combinations of C90A/C306A/I159C/H547A and C90A/C306A/I159A/H547A were generated as E2C-I159C/H547A and E2C-I159A/H547A for positive and negative controls for MTSET sensitive background, respectively. Synthetic cDNA encoding hDAT subcloned into pcDNA3.1+ (provided by Dr. Haley E Melikian, University of Massachusetts) was used as a template to generate mutants using site-directed mutagenesis performed by GENEWIZ (South Plainfield, NJ). DNA sequencing was also performed by GENEWIZ to confirm the sequences of the mutant constructs. Plasmid DNA were propagated and purified using the Qiagen Hi-speed maxi prep plasmid DNA isolation kit (Qiagen, Valencia, CA, USA).
This assay was performed based on the previous report with minor modifications (Loland et al. [2004], [2008]). First, we generated five WT hDAT based plasmid construct for MTSET-insensitive or sensitive background as we described above. HEK293 cells were grown in poly-d-lysine coated plates at a density of 1 × 10^5 cells/cm^2 were transfected with different E2C- associated hDAT background constructs: E2C hDAT, E2C-I159C hDAT, E2C/H547A hDAT, E2C-I159C/H547A or E2C-I159A/H547A. Twenty-four hours after the transfection, cells were washed twice with 1× KRH buffer, and preincubated with or without the presence of 10 µM nomifensine (for non-specific uptake) and MTSET for 10 min at room temperature. MTSET at 1 mM final concentration was chosen based on a pilot study on optimizing MTSET concentrations (0.1, 0.5 or 1.0 mM). […] Because MTSET is easily hydrolyzed in solution, the amount needed for a 10 × stock was weighed out and dissolved in 1 × KRH buffer just right before adding to the assigned wells, for a 10-fold dilution (final concentration of 1 mM in final volume of 250 µl). […] Cells were immediately washed twice with ice-cold 1 × KRH buffer to terminate the reaction and were lysed rapidly with the addition of 1 % SDS. Cell lysates were collected after incubation for 1 h at room temperature and radioactivity was determined the next day.

For `C[N+](C)(C)CCSS(C)(=O)=O` [MTSET, [2-(trimethylammonium)ethyl]-methanethiosulfonate], the “inhibition on E2C-I159C” value [1] is given as 40% and the “effect of MTSET on DA uptake” value [2] is given as “no effect”.
